# In patent EP3782622A1, “ADENOSINE A2B RECEPTOR AGONIST FOR THE TREATMENT OF MUSCU[…]” (Rheinische Friedrich-Wilhelms-Universität Bonn, priority 2019, dated 2021):
# Legend:
# [1] = tested on: humanen Skelettmuskel-Explantaten; assay: Endogenous respiration (Oxygraph 2K): oxygen consumption of human skeletal muscle explants; assay type: cell-based; details: treated 15 min before measurement
# Method: (§1) Skelettmuskelzellen oder -gewebe wurden 15 Minuten vor den […] Messungen wie angegeben behandelt (Oxygraph 2K; Oroboros Instruments). Die Proben wurden in die Oxygraphenkammer mit 2 ml Inkubationsmedium (0,5 mM Ethylenglycol-bis(aminoethylether)-N,N,N',N'-tetraessigsäure (EGTA), 3 mM MgCl2 · 6 H2O, 60 mM K-Lactobionat, 20 mM Taurin, 10 mM KH2PO4, 20 mM 2-(4-(2-Hydroxyethyl)-1-piperazinyl)-ethansulfonsäure (HEPES), 110 mM Saccharose und 1 g/l Bovines Serumalbumin (BSA), pH 7,1) gebracht. In vitro-Atmungswerte wurden bei Erreichen eines stationären Zustandes aufgezeichnet, gefolgt von der Zugabe von Substraten (Zustand 1: endogen; Zustand 2: Adenosindiphosphat (ADP); Zustand 3: Succinat; Zustand 4: Oligomycin; entkoppelt: 2,4-dinitrophenol, carbonylcyanide p-trifluoromethoxyphenyl-hydrazine (FCCP)). Die Atmungsraten wurden auf den Gesamtproteingehalt normalisiert.
# [2] = tested on: murinem Muskelgewebe; assay: Endogenous respiration (Oxygraph 2K): oxygen consumption of murine muscle tissue ex vivo; assay type: cell-based, murin; details: Abbildung 2
# Method: as §1
# [3] = tested on: primären humanen Skelettmuskelzellen; assay: Endogenous respiration (Oxygraph 2K): oxygen consumption of primary human skeletal muscle cells; assay type: cell-based
# Method: as §1
# [4] = tested on: primäre humane Skelettmuskelzellen; assay: Glucose uptake test (abcam kit ab136956); assay type: cell-based; details: primary human skeletal muscle cells, Abbildung 5
# Excerpt: Die Glukoseaufnahme wurde mit murinen und humanen SKM-Zellen unter Verwendung des Glukoseaufnahmekits von abcam (ab136956) (abcam plc., Cambridge, UK) nach Herstellerangaben gemessen.
# [5] = tested on: Mäusen; assay: Muscle mass in mice after treatment (muscle analysis/sarcopenia); assay type: in vivo, Mäuse; details: Abbildung 6; for Muskelmasse: mice, 1 mg/kg intraperitoneal once daily for four weeks
# Excerpt: (§2) WT männliche C57BL/6 Mäuse wurden von Janvier gekauft. A2B-/- Mäuse wurden von M. Idzko, Freiburg, Deutschland, zur Verfügung gestellt. ATA2B-KO (A2Bfloxed/floxed;AdipoCre+) und Con-A2B (A2Bfloxed/floxed;AdipoCre-) Mäuse wurden durch Züchtung von A2Bfloxed/floxed Mäusen (erzeugt von Holger K. Eltzschig) mit Adiponectin-Cre (Jackson Laboratories) Mäusen zur Herstellung von A2Bfloxed;AdipoCre+ heterozygoten Mäusen erzeugt. Heterozygote Mäuse wurden mit A2Bfloxed/floxed gezüchtet. Männliche Wurfgeschwister wurden zufällig experimentellen Gruppen zugeordnet. Halbfettdiät (HFD, 60% Energie aus Fett) und Kontrolldiät wurden von ssniff Spezialdiäten GmbH (Soest, DE) gekauft. Mäuse wurden in einem täglichen Zyklus von 12 Stunden Licht (0600 bis 1800) und 12 Stunden Dunkelheit (1800 bis 0600) bei 23 ± 1°C gehalten und erhielten freien Zugang zu Futter und Wasser. Für die Muskelanalyse/Sarkopenie wurden Mäusen vier Wochen lang einmal täglich intraperitoneal mit 1 mg/kg 2-({6-Amino-3,5-dicyano-4-[4-(cyclopropylmethoxy)-phenyl]-pyridin-2-yl}sulfanyl)-acetamid (Bay 60-6583) injiziert.
# [6] = tested on: Mäusen; assay: Muscle strength of mice after treatment; assay type: in vivo, Mäuse; details: Abbildung 8; for Muskelkraft: mice
# Excerpt: as §2
# Extensor digitorum longus (EDL) Muskeln aus den Hinterbeinen von Mäusen wurden von Sehne zu Sehne isoliert, in eine wässrige Pufferlösung aus Krebs-Puffer (118 mM NaCl, 3,4 mM KCl, 0,8 mM MgSO4, 1,2 mM KH2PO4, 11,1 mM Glukose, 25 mM NaHCO3, 2,5 mM CaCl2) getaucht und bei Raumtemperatur mit Carbogen (ein Gasgemisch aus 5 Volumenteilen Kohlenstoffdioxid (CO2) und 95 Volumenteilen Sauerstoff (O2)) umspült. Die Muskeln wurden zwischen der Klemme eines Hebelarms und dem Haken eines Kraftaufnehmers eines Myographen (SI Instruments) ausgerichtet. Dann wurden die Muskeln gedehnt, bis ein einzelner Impuls während einer Zuckungsstimulation die maximale Kraft hervorrief. Es wurden Zuckungsstimulationen (2 V, 1 ms) für […] aufgezeichnet und die Kraft gemessen. Die gesamte Muskelquerschnittsfläche wurde geschätzt, indem die Muskelmasse durch das Produkt aus der Muskellänge, dem Verhältnis von […] (0,44 bei EDL) und der Dichte des Säugetiermuskels (1,06 mg/mm^3) dividiert wurde. […]
# [7] = tested on: Satellitenzellen; assay: Isolation and amount of satellite cells from treated old mice; assay type: in vivo, Mäuse; details: 1 mg/kg once daily for four weeks
# Excerpt: as §2, with “injiziert. […]” for “injiziert.”
compound,measurement,setting,value
"N#Cc1c(N)nc(SCC(N)=O)c(C#N)c1-c1ccc(OCC2CC2)cc1 [BAY 60-6583, 2-({6-Amino-3,5-dicyano-4-[4-(cyclopropylmethoxy)-phenyl]pyridin-2-yl}sulfanyl)-acetamid]",Sauerstoffverbrauch in Bezug auf die Gewebemasse,[1]; Abbildung 1,signifikant erhöht
same,Sauerstoffverbrauch in Bezug auf die Gewebemasse,"[1]; Abbildung 1, listed as Bay 60-6583",signifikant gesteigert
same,Sauerstoffverbrauch,[2],signifikant erhöht
same,Sauerstoffverbrauch in Bezug auf das veratmete Protein,[3]; Abbildung 4,signifikant erhöht
same,Sauerstoffverbrauch in Bezug auf das veratmete Protein,"[3]; Abbildung 4, listed as Bay 60-6583",signifikant gesteigert
same,Aufnahme von Glukose,[4],signifikant erhöht
same,Aufnahme von Glukose,[4]; listed as Bay 60-6583,signifikant gesteigert
same,Muskelmasse,[5]; 1 mg/kg,dem alterungsbedingten Verlust von Muskelmasse entgegenwirkt
same,Muskelmasse,"[5]; listed as Bay 60-6583, 1 mg/kg",signifikant gesteigert
same,"Muskelmasse, treated aged mice compared with young controls",[5]; treated aged (20 months) mice vs young (2 months) control animals,vergleichbare Muskelmasse wie junge (2 Monate alte) Kontrolltiere
same,Muskelkraft,[6],signifikant erhöht
same,Muskelkraft,[6]; listed as Bay 60-6583,signifikant gesteigert
same,"Muskelkraft, treated aged mice compared with young controls",[6]; treated aged mice vs young control animals,so viel Kraft wie junge Kontrolltiere
same,Menge an Satellitenzellen,"[7]; Abbildung 9, 1 mg/kg",erhöht
same,Menge an Satellitenzellen,"[7]; Abbildung 9, listed as Bay 60-6583, 1 mg/kg",signifikant erhöht
